Results as given in patent US20250230193A1, “CYCLIC COMPOUND HAVING SELECTIVE KRAS INHIBITORY EFFECT ON HRAS AND NRAS” (CHUGAI SEIYAKU KABUSHIKI KAISHA, priority 2022, published 2025).

Experiments:
[1] = molecular target: GDP-bound HRAS wild-type protein (Homo sapiens, UniProt P01112); assay: Binding to HRAS by surface plasmon resonance (SPR), Single Cycle Kinetics; conditions: KD ratio, GDP-bound HRAS wild-type vs GDP-bound KRAS wild-type, SPR
[2] = molecular target: GDP-bound NRAS wild-type protein (Homo sapiens, UniProt P01111); assay: Binding to NRAS by surface plasmon resonance (SPR), Single Cycle Kinetics; conditions: KD ratio, GDP-bound NRAS wild-type vs GDP-bound KRAS wild-type, SPR
Chain of GDP-bound NRAS wild-type protein (P01111 whole entry): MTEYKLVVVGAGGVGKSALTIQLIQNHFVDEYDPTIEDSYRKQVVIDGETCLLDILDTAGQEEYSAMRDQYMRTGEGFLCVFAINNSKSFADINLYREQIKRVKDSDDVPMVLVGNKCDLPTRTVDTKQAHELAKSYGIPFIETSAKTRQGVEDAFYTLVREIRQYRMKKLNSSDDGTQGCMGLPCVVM

Chain of GDP-bound HRAS wild-type protein (P01112 whole entry): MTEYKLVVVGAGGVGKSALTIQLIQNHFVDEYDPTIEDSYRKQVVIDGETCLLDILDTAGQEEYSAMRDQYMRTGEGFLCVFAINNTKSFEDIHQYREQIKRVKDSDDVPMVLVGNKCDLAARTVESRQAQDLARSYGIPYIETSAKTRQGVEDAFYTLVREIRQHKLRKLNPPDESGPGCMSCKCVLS

Row | SMILES | HRAS/KRAS (ratio of KD value for HRAS to KD value for KRAS) [1] | NRAS/KRAS (ratio of KD value for NRAS to KD value for KRAS) [2]
1 | CCO[C@@H]1C[C@H]2C(=O)NC3(CC(C)(C)C3)C(=O)N(C)[C@@H](C3CCCC3)C(=O)N(C)[C@H](C(=O)N(C)CC)CC(=O)N(C)[C@H]3CCCC/C=C/c4ccc(cc4)C[C@@H](C(=O)N(C)CC(=O)N[C@@H](CCc4ccc(C(F)(F)F)c(OC)c4)C(=O)N2C1)N1CC/C=C\C[C@@H](C1=O)N(C)C(=O)CN(C)C(=O)[C@H]([C@@H](C)CC)NC3=O [PP1830, (1S,7S,11R,13S,19S,22S,26S,29S,35S,37Z,47E)-19-cyclopentyl-11-ethoxy-N-ethyl-7-[2-[3-methoxy-4-(trifluoromethyl)phenyl]ethyl]-N,3,3′,3′,18,21,25,31,34-nonamethyl-29-[(1S)-1-methylpropyl]-2,5,8,14,17,20,24,27,30,33,55-undecaoxo-spiro[3,6,9,15,18,21,25,28,31,34,41-undecazapentacyclo[24.15.11.2^43,46.1^35,41.0^9,13]pentapentaconta-37,43(54),44,46(53),47-pentaene-16,1′-cyclobutane]-22-carboxamide] | B (a compound having 3 or more and less than 10 is denoted as B) | A (a compound having 10 or more and less than 20 is denoted as A)
2 | CCO[C@@H]1C[C@H]2C(=O)NC3(CC(C)(C)C3)C(=O)N(C)[C@@H](C3CCCC3)C(=O)N(C)[C@H](C(=O)N(C)C)CC(=O)N(C)[C@H]3CCCC/C=C/c4ccc(cc4)C[C@@H](C(=O)N(C)CC(=O)N[C@@H](CCc4cc(F)c(C(F)(F)F)c(F)c4)C(=O)N2C1)N1CC/C=C\C[C@@H](C1=O)N(C)C(=O)CN(C)C(=O)[C@H]([C@@H](C)CC)NC3=O [PP1831] | A (a compound having 10 or more and less than 20 is denoted as A) | A (a compound having 10 or more and less than 20 is denoted as A)
3 | CCO[C@@H]1C[C@H]2C(=O)NC3(CC(C)(C)C3)C(=O)N(C)[C@@H](C3CCCC3)C(=O)N(C)[C@H](C(=O)N(C)C)CC(=O)N(C)[C@H]3CCCC/C=C/c4ccc(cc4)C[C@@H](C(=O)N(C)CC(=O)N[C@@H](CCc4ccc(C(F)(F)F)c(OC)c4)C(=O)N2C1)N1CC/C=C\C[C@@H](C1=O)N(C)C(=O)CN(C)C(=O)[C@H]([C@@H](C)CC)NC3=O [PP1832] | B (a compound having 3 or more and less than 10 is denoted as B) | B (a compound having 3 or more and less than 10 is denoted as B)
4 | CCO[C@@H]1C[C@H]2C(=O)NC3(CCC3)C(=O)N(C)[C@@H](C3CCCC3)C(=O)N(C)[C@H](C(=O)N(C)CC)CC(=O)N(C)[C@H]3CCC/C=C/c4ccc(cc4)C[C@@H](C(=O)N(C)CC(=O)N[C@@H](CCc4ccc(C(F)(F)F)c(OC)c4)C(=O)N2C1)N1CC/C=C\C[C@@H](C1=O)N(C)C(=O)CN(C)C(=O)[C@H]([C@@H](C)CC)NC3=O [PP1834] | B (a compound having 3 or more and less than 10 is denoted as B) | A (a compound having 10 or more and less than 20 is denoted as A)
5 | CCO[C@@H]1C[C@H]2C(=O)NC3(CC(C)(C)C3)C(=O)N(C)[C@@H](C3CCCC3)C(=O)N(C)[C@H](C(=O)N(C)CC)CC(=O)N(C)[C@H]3CCC/C=C/c4ccc(cc4)C[C@@H](C(=O)N(C)CC(=O)N[C@@H](CCc4cc(F)c(C(F)(F)F)c(F)c4)C(=O)N2C1)N1CC/C=C\C[C@@H](C1=O)N(C)C(=O)CN(C)C(=O)[C@H]([C@@H](C)CC)NC3=O [PP1835] | B (a compound having 3 or more and less than 10 is denoted as B) | A (a compound having 10 or more and less than 20 is denoted as A)
6 | CC[C@H](C)[C@@H]1NC(=O)[C@H](CC)N(C)C(=O)C[C@@H](C(=O)N(C)C)N(C)C(=O)[C@H](C2CCCC2)N(C)C(=O)C2(CC(C)(C)C2)NC(=O)[C@@H]2C[C@H](C)CN2C(=O)[C@H](CCc2ccc(C(F)(F)F)c(OC)c2)NC(=O)CN(C)C(=O)[C@H](Cc2ccc(C)cc2)N2CC/C=C\C[C@@H](C2=O)N(C)C(=O)CN(C)C1=O [PP1836] | B (a compound having 3 or more and less than 10 is denoted as B) | A (a compound having 10 or more and less than 20 is denoted as A)
7 | CC[C@H](C)[C@@H]1NC(=O)[C@H](CC(F)F)N(C)C(=O)C[C@@H](C(=O)N(C)CC)N(C)C(=O)[C@H](C2CCCC2)N(C)C(=O)C2(CC(C)(C)C2)NC(=O)[C@@H]2C[C@@H](C)CN2C(=O)[C@H](CCc2ccc(C(F)(F)F)c(Cl)c2)NC(=O)CN(C)C(=O)[C@H](Cc2ccc(C)cc2)N2CC/C=C\C[C@@H](C2=O)N(C)C(=O)CN(C)C1=O [PP1837] | A (a compound having 10 or more and less than 20 is denoted as A) | A (a compound having 10 or more and less than 20 is denoted as A)
8 | CC[C@H](C)[C@@H]1NC(=O)[C@H](CC)N(C)C(=O)C[C@@H](C(=O)N(C)C)N(C)C(=O)[C@H](C2CCCC2)N(C)C(=O)C2(CC(C)(C)C2)NC(=O)[C@@H]2C[C@@H](C)CN2C(=O)[C@H](CCc2ccc(C(F)(F)F)c(OC)c2)NC(=O)CN(C)C(=O)[C@H](Cc2ccc(C)cc2)N2CC/C=C\C[C@@H](C2=O)N(C)C(=O)CN(C)C1=O [PP1838] | A (a compound having 10 or more and less than 20 is denoted as A) | A (a compound having 10 or more and less than 20 is denoted as A)
9 | CC[C@H](C)[C@@H]1NC(=O)[C@H](CC)N(C)C(=O)C[C@@H](C(=O)N(CC)CC)N(C)C(=O)[C@H](C2CCCC2)N(C)C(=O)C2(CC(C)(C)C2)NC(=O)[C@@H]2C[C@H](C)CN2C(=O)[C@H](CCc2ccc(C(F)(F)F)c(OC)c2)NC(=O)CN(C)C(=O)[C@H](Cc2ccc(C)cc2)N2CC/C=C\C[C@@H](C2=O)N(C)C(=O)CN(C)C1=O [PP1839] | B (a compound having 3 or more and less than 10 is denoted as B) | A (a compound having 10 or more and less than 20 is denoted as A)
10 | CCC[C@H]1C(=O)N[C@@H]([C@@H](C)CC)C(=O)N(C)CC(=O)N(C)[C@H]2C/C=C\CCN(C2=O)[C@@H](Cc2ccc(C)cc2)C(=O)N(C)CC(=O)N[C@@H](CCc2ccc(C(F)(F)F)c(OC)c2)C(=O)N2C[C@@H](C)C[C@H]2C(=O)NC2(CCC2)C(=O)N(C)[C@@H](C2CCCC2)C(=O)N(C)[C@H](C(=O)N(C)CC)CC(=O)N1C [PP1840] | B (a compound having 3 or more and less than 10 is denoted as B) | A (a compound having 10 or more and less than 20 is denoted as A)
11 | CC[C@H](C)[C@@H]1NC(=O)[C@H](CC)N(C)C(=O)C[C@@H](C(=O)N(CC)CC)N(C)C(=O)[C@H](C2CCCC2)N(C)C(=O)C2(CC(C)(C)C2)NC(=O)[C@@H]2C[C@@H](C)CN2C(=O)[C@H](CCc2ccc(C(F)(F)F)c(OC)c2)NC(=O)CN(C)C(=O)[C@H](Cc2ccc(C)cc2)N2CC/C=C\C[C@@H](C2=O)N(C)C(=O)CN(C)C1=O [PP1841] | A (a compound having 10 or more and less than 20 is denoted as A) | AA (a compound having 20 or more is denoted as AA)
12 | CC[C@H](C)[C@@H]1NC(=O)[C@H](CC)N(C)C(=O)C[C@@H](C(=O)N(C)C)N(C)C(=O)[C@H](C2CCCC2)N(C)C(=O)C2(CC(C)(C)C2)NC(=O)[C@@H]2C[C@H](C)CN2C(=O)[C@H](CCc2ccc(C(F)(F)F)c(Cl)c2)NC(=O)CN(C)C(=O)[C@H](Cc2ccc(C)cc2)N2CC/C=C\C[C@@H](C2=O)N(C)C(=O)CN(C)C1=O [PP1844] | B (a compound having 3 or more and less than 10 is denoted as B) | A (a compound having 10 or more and less than 20 is denoted as A)
13 | CC[C@H](C)[C@@H]1NC(=O)[C@H](CC)N(C)C(=O)C[C@@H](C(=O)N(C)C)N(C)C(=O)[C@H](C2CCCC2)N(C)C(=O)C2(CC(C)(C)C2)NC(=O)[C@@H]2C[C@@H](C)CN2C(=O)[C@H](CCc2ccc(C(F)(F)F)c(Cl)c2)NC(=O)CN(C)C(=O)[C@H](Cc2ccc(C)cc2)N2CC/C=C\C[C@@H](C2=O)N(C)C(=O)CN(C)C1=O [PP1846] | B (a compound having 3 or more and less than 10 is denoted as B) | A (a compound having 10 or more and less than 20 is denoted as A)
14 | CC[C@H](C)[C@@H]1NC(=O)[C@H](CC(C)C)N(C)C(=O)C[C@@H](C(=O)N(CC)CC)N(C)C(=O)[C@H](C2CCCC2)N(C)C(=O)C2(CCC2)NC(=O)[C@@H]2C[C@@H](C)CN2C(=O)[C@H](CCc2ccc(C(F)(F)F)c(OC)c2)NC(=O)CN(C)C(=O)[C@H](Cc2ccc(C)cc2)N2CC/C=C\C[C@@H](C2=O)N(C)C(=O)CN(C)C1=O [PP1849] | A (a compound having 10 or more and less than 20 is denoted as A) | A (a compound having 10 or more and less than 20 is denoted as A)
15 | CCO[C@@H]1C[C@H]2C(=O)NC3(CCC3)C(=O)N(C)[C@@H](C3CCCC3)C(=O)N(C)[C@H](C(=O)N(CC)CC)CC(=O)N(C)[C@@H](CC(C)C)C(=O)N[C@@H]([C@@H](C)CC)C(=O)N(C)CC(=O)N(C)[C@H]3C/C=C\CCN(C3=O)[C@@H](Cc3ccc(C)cc3)C(=O)N(C)CC(=O)N[C@@H](CCc3ccc(C(F)(F)F)c(OC)c3)C(=O)N2C1 [PP1851] | A (a compound having 10 or more and less than 20 is denoted as A) | A (a compound having 10 or more and less than 20 is denoted as A)
